Laboratory results published in publication PMC5371824, “Phosphatidylinositol (4,5)-bisphosphate dynamically regulates the K2P background K^+ channel TASK-2” (Scientific Reports, 2017).
Several values for one entry are separate records, joined by “and”; a condition that tells them apart may be missing. Identical values can stand only once.

Assays:
TASK-2 = molecular target: T1, TASK-2 (Mus musculus, UniProt F6V9U5); assay: Excised inside-out patch recording from HEK-293 cells over-expressing TASK-2; assay type: biochemical
T1 construct: expressed in transfected cells; host or cells: HEK-293
T1 sequence (F6V9U5 1-502): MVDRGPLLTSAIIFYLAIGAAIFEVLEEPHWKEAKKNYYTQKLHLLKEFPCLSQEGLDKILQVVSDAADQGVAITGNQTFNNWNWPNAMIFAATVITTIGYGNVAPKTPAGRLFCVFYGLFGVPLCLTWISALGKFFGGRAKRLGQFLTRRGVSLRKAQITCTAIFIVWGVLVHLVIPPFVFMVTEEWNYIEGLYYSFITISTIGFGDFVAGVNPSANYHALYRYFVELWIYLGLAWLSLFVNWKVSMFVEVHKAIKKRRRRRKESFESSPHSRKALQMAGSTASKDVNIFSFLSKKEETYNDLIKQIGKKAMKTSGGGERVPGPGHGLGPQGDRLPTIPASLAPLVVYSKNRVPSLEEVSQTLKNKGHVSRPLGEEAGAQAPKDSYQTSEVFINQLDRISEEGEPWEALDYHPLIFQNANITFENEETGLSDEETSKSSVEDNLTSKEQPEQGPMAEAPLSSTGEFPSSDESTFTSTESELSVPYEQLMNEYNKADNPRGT

KCNQ1/KCNE1 = system: KCNQ1/KCNE1; set-up: method as in PMID 21576493; conditions: read-out: EC50 for PI(4,5)P2 effect; cited from earlier work

Effect of readmitted ATP relative to the maximal effect elicited by the PIP (TASK-2; 1 mM ATP added after PIP, inside-out patches, Fig. S3): 1.7 fold
Stimulating effect on TASK-2-mediated currents after run-down (TASK-2; diC8 PIP added to inside-out excised patches, absence of ATP): Robust, but intermediate effects
Maximal fold effect on TASK-2 current (normalised to current in absence of PIP) (TASK-2; diC8 PIP, inside-out patch, -60 mV, absence of ATP, from fits, means ± SEM): 3.7 ± 0.2 fold
EC50 (TASK-2; diC8 PIP, inside-out patch, -60 mV, absence of ATP, from fits, means ± SEM, read-out: K0.5 (EC50) for activation of TASK-2 current): 34.9 µM and 35 µM
Compound: CCCCCCCC(=O)OC[C@H](COP(=O)(O)O[C@@H]1[C@H](O)[C@H](O)[C@@H](OP(=O)(O)O)[C@H](OP(=O)(O)O)[C@H]1O)OC(=O)CCCCCCC [PI(4,5)P2, phosphatidylinositol 4,5-bisphosphate diC8]
EC50 (KCNQ1/KCNE1): 5 µM
